Reference: PMC2578980 (The Yale Journal of Biology and Medicine, 1998)

Tests used:
human CCK-BR [1] = target: T1, human CCK-BR (Homo sapiens, UniProt P32239); test: Inositol phosphate accumulation; type: cell-based; conditions: for effect on inositol phosphate production (intrinsic activity): high concentrations of non-peptide ligands
T1 sequence (P32239 1-447): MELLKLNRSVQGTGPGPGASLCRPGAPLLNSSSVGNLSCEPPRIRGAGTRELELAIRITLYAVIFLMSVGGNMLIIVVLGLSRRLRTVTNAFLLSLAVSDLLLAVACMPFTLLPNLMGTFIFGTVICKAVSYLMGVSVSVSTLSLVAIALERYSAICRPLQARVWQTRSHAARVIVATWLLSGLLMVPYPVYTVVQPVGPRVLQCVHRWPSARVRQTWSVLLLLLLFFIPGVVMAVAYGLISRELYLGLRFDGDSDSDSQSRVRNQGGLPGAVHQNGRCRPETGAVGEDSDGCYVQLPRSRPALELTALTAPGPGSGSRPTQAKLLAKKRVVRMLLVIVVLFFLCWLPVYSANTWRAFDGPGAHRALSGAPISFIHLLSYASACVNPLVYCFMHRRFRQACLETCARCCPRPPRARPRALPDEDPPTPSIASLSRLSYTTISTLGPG

human CCK-BR [2] = target: T1, human CCK-BR
gastric acid secretion = conditions: cited from earlier work
human CCK-BR [3] = target: T1, human CCK-BR; conditions: human CCK-BR expressed in CHO instead of COS-7 cells; cited from earlier work

| SMILES | effect on inositol phosphate production (intrinsic activity) (human CCK-BR [1]) | blockade of CCK-8 induced inositol phosphate formation (human CCK-BR [2]) | inositol phosphate formation, percent of the CCK-8 induced maximum (human CCK-BR [1]) [%] | intrinsic activity in the rat (gastric acid secretion) | functional classification in CHO cells (human CCK-BR [3]) |
| --- | --- | --- | --- | --- | --- |
| Cc1cccc(NC(=O)N[C@@H]2N=C(c3ccccc3)c3ccccc3N(CC(=O)c3ccccc3C)C2=O)c1 [YM022, (R)-1-[2,3-dihydro-1-(2'-methylphenacyl)-2-oxo-5-phenyl-1H-1,4-benzodiazepin-3-yl]-3-(3-methylphenyl)urea] | little, if any, effect | completely blocks | – | – | – |
| C[C@](Cc1c[nH]c2ccccc12)(NC(=O)OC1C2CC3CC(C2)CC1C3)C(=O)NC[C@H](NC(=O)/C=C/C(=O)O)c1ccccc1 (stereo partly shown) [PD 136,450] | – | – | 43 | no appreciable intrinsic activity | – |
| CC1(C)[C@H]2CC[C@@]1(C)[C@H](OC(=O)N[C@](C)(Cc1c[nH]c3ccccc13)C(=O)NC[C@H](NC(=O)CCC(=O)O)c1ccccc1)C2 [PD 135,158] | – | – | 23 | – | "true" antagonist |
| Cc1cccc(NC(=O)N[C@@H]2N=C(c3ccccc3)c3ccccc3N(C)C2=O)c1 [L-365,260] | little, if any, effect | – | – | – | – |
